# According to publication PMC10586324 (Journal of medicinal chemistry, 2023):
# Read-outs that look alike come from different tables or passages of the source.
# How the values were obtained:
# Mabs ATCC19977 = experiment: MBC determination by CFU counting
# [1] = Nephelometry kinetic solubility screen in PBS; assay type: physicochemical
# [2] = Plasma stability, murine plasma; assay type: in vitro ADME; details: 1 μM, 120 min
# [3] = oral administration, rats; cited from earlier work
# [4] = system: HEP 93 liver cancer cell line; details: cited from earlier work
# [5] = oral administration, mice; cited from earlier work
# Mabs = details: enantiomers; cited from earlier work
structure (smiles),measurement,setting,value
O=C(N[C@H](Cc1ccccc1)C(=O)Nc1ccccc1N1CC[S+]([O-])CC1)c1ccccc1F [Compound 15],MBC99 as multiple of MIC90,Mabs ATCC19977,2 X MIC90
same,solubility relative to MMV688845,[1],approximately 5 times
O=C(N[C@H](Cc1ccccc1)C(=O)Nc1ccccc1N1CCS(=O)(=O)CC1)c1cccs1 [Compound 20],MBC99 as multiple of MIC90,Mabs ATCC19977,2 X MIC90
O=C(N[C@H](Cc1ccccc1)C(=O)Nc1ccccc1N1CCS(=O)(=O)CC1)c1ccccc1F [Compound 24],stability in murine plasma,[2],improved stability
"O=C(N[C@H](Cc1ccccc1)C(=O)Nc1ccccc1N1CCOCC1)c1cccs1 [MMV688845, Nα-2-thiophenoyl-D-phenylalanine-2-morpholinoanilide]",stability in murine plasma,[2],stronger decline in concentration than compound 24
same,MBC99 as multiple of MIC90,Mabs ATCC19977,8 X MIC90
same,reduction of viable bacteria,Mabs ATCC19977; at 6.25 μM (derivatives: 6.25 μM and higher),no reduction
same,drug plasma levels,[3],low drug plasma levels
same,cytotoxicity HEP 93,[4],non-cytotoxic
same,drug plasma levels,[5],low drug plasma levels
same,activity against Mabs,Mabs,shows activity
